Reference: US8663616B2, “Enzymatic peracid generation for use in oral care products” (E I du Pont de Nemours and Company, priority 2010, dated 2014)

Columns and labels:
C277S (SEQ ID NO: 424) = target: T1, C277S (SEQ ID NO: 424) (Thermotoga maritima, UniProt Q9WXT2, C277S); assay type: biochemical; details: 100 mM ester, 60 mM H2O2, 40 ppm enzyme, 95 mM phosphate pH 7.2, 37° C.
T1 construct: made in house; host or cells: E. coli
Protocol: (§1) To test various enzymes against an ester substrate, it was convenient to run up to 4 reactions simultaneously by staggering the beginning of each individual reaction by 0.5-1 min. Each individual reaction was performed in a glass vessel (height: 76 mm; o.d.: 33 mm; i.d.: 24 mm) equipped with a magnetic stirring bar. Four reaction vessels were banded together and kept at constant temperature in a jacketed one-liter, stainless steel, tempering beaker (KGW IsoTherm, # TSS-G 1000W) with circulating water controlled by a Thermo NesLab recirculation bath (Model # RTE-7 Digital One). Buffer (6 mL, 100 mM sodium phosphate buffer, pH 7.2) was added to each reaction vessel and allowed to equilibrate to 37° C. The ester substrate of interest was added to achieve 100 mM concentration. […] To follow the production of peracetic acid, 80 μL samples from each reaction were removed at specific intervals from 1 to 15 minutes. The sample was immediately quenched in a microfuge filter tube (NanoSep 30K VWR cat #82031-354) containing a volume and concentration of phosphoric acid solution that was sufficient to stop the enzymatic reaction (by lowering the pH between 2 and 3) and to dilute the sample for convenient HPLC analyses. The acid-quenched samples were centrifuged for 5 minutes to remove any particulates.

C277T (SEQ ID NO: 437) = target: T2, C277T (SEQ ID NO: 437) (Thermotoga maritima, UniProt Q9WXT2, C277T); assay type: biochemical; details: 100 mM ester, 60 mM H2O2, 40 ppm enzyme, 95 mM phosphate pH 7.2, 37° C.
T2 construct: made in house; host or cells: E. coli
Protocol: as §1

[1] = target: T3, C277T/R296P (SEQ ID NO: 476) (Thermotoga maritima, UniProt Q9WXT2, C277T/R296P); assay type: biochemical; details: 100 mM ester, 60 mM H2O2, 40 ppm enzyme, 95 mM phosphate pH 7.2, 37° C.
T3 construct: made in house; host or cells: E. coli
Protocol: as §1

[2] = target: T4, Wild Type (SEQ ID NO: 16) (Thermotoga maritima, UniProt Q9WXT2); experiment: Maximum peracetic acid from ester substrates with wild type perhydrolase (Example 14); assay type: biochemical; details: 100 mM ester, 60 mM H2O2, 40 ppm enzyme, 95 mM phosphate pH 7.2, 37° C.
T4 construct: made in house; host or cells: E. coli
T4 sequence (Q9WXT2 1-325): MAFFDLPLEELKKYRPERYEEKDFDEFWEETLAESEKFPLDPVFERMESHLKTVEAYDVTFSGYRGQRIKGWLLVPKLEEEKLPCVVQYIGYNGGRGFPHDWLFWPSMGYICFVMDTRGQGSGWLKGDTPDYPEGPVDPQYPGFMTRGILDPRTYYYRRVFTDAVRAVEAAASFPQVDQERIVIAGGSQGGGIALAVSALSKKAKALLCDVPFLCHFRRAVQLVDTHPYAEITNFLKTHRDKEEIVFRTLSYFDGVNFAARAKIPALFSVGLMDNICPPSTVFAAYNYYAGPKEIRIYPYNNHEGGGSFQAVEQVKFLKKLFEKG
Protocol: as §1

[3] = Bleaching of coffee-tea stained bovine enamel with EZ-1 and various ester substrates (Example 15); parameters: Whiteness Index Treatment 0 / Whiteness Index Treatment 1 / Whiteness Index Treatment 2 / Whiteness Index Treatment 3 / ΔWI: scale not given here; details: for Whiteness Index Treatment 1: after 1 x 30 min treatment; for Whiteness Index Treatment 2: after 2 x 30 min treatments; for Whiteness Index Treatment 3: after 3 x 30 min treatments; for Whiteness Index Treatment 0: before treatment, 40 ppm EZ-1, 100 mM substrate, H2O2 100 mM (TA), 360 mM (PGDA, SOC), 60 mM (GPA), pH 7.2, control 9% H2O2 pH 5.3 without enzyme; for change in whiteness index (in words): enzymatically generated peracetic acid with EZ-1, each successive treatment; for ΔWI: treatment 0 to treatment 3
Protocol: The optimal conditions used for the generation of peracetic acid with each substrate were derived from the studies in Example 14 and are listed below as follows:
Bovine enamel incisors were prepared as indicated in Example 1. The stained enamel blocks were placed in a 24 well plate with the dentin side facing down and hydrated overnight in phosphate buffer, pH 7.2. Prior to treatment, a color measurement of each tooth was performed using a Konica-Minolta 2600d spectrophotometer and whiteness index was calculated as specified in Example 1.
Each enzyme solution was prepared in a 1.5-mL microfuge tube (Eppendorf, #2243102-1) and 1 mL of the solution was immediately transferred to the 24 well plate containing the pre-hydrated teeth. The control samples consisted of 100 mM phosphate buffer, pH 7.2 and 9% H2O2 in 100 mM citrate/phosphate buffer, pH 5.3. The teeth were incubated at room temperature for 30 minutes, removed, rinsed with 100 mM phosphate, pH 7.2 and a color measurement was taken. The teeth were placed back into the 24 well plate at which time fresh enzyme solutions were prepared and added to each well. This process was repeated for a total of 3 whitening treatments; 30 min per treatment (Table 22).

T3 sequence (Q9WXT2 whole entry C277T/R296P): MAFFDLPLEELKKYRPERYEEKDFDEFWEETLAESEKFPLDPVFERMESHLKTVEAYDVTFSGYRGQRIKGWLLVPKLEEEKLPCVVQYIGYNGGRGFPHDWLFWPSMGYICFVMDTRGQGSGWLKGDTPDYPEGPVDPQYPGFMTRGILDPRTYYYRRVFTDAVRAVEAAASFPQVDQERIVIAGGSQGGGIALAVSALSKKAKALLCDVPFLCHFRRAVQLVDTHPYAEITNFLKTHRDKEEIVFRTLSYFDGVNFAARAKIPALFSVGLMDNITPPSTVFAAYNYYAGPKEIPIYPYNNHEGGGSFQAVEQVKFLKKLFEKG
T2 sequence (Q9WXT2 whole entry C277T): as the sequence (Q9WXT2 whole entry C277T/R296P) above, with P296R counted along it
T1 sequence (Q9WXT2 whole entry C277S): as the sequence (Q9WXT2 whole entry C277T/R296P) above, with T277S, P296R counted along it

Structure (SMILES): CC(=O)OC[C@H]1O[C@H](OC(C)=O)[C@H](OC(C)=O)[C@@H](OC(C)=O)[C@@H]1OC(C)=O [α-D-glucose pentaacetate]
- Maximum Peracetic Acid (PAA) (ppm), C277S (SEQ ID NO: 424) (C277S (SEQ ID NO: 424)): 2091 ppm
- Maximum Peracetic Acid (PAA) (ppm), C277T (SEQ ID NO: 437) (C277T (SEQ ID NO: 437)): 2542 ppm
- Maximum Peracetic Acid (PAA) (ppm), C277T/R296P (SEQ ID NO: 476) [1]: 1678 ppm
- Maximum Peracetic Acid (PAA) (ppm), Wild Type (SEQ ID NO: 16) [2]: 1188 ppm
- Whiteness Index Treatment 1 [3]: −128.7
- Whiteness Index Treatment 2 [3]: −105.3
- Whiteness Index Treatment 3 [3]: −95.9
- Whiteness Index Treatment 0 [3]: −225.2
- change in whiteness index (in words) [3]: significant change in whiteness index
- ΔWI [3]: 129.3

Structure (SMILES): CC(=O)OCC(COC(C)=O)OC(C)=O [Triacetin]
- Maximum Peracetic Acid (PAA) (ppm), C277S (SEQ ID NO: 424) (C277S (SEQ ID NO: 424)): 1977 ppm
- Maximum Peracetic Acid (PAA) (ppm), C277T (SEQ ID NO: 437) (C277T (SEQ ID NO: 437)): 2311 ppm
- Maximum Peracetic Acid (PAA) (ppm), C277T/R296P (SEQ ID NO: 476) [1]: 2291 ppm
- Maximum Peracetic Acid (PAA) (ppm), Wild Type (SEQ ID NO: 16) [2]: 937 ppm
- Whiteness Index Treatment 1 [3]: −108.7
- Whiteness Index Treatment 2 [3]: −86.7
- Whiteness Index Treatment 3 [3]: −86.1
- Whiteness Index Treatment 0 [3]: −189.9
- change in whiteness index (in words) [3]: significant change in whiteness index
- ΔWI [3]: 103.8

Structure (SMILES): CC(=O)OC[C@H]1O[C@@](COC(C)=O)(O[C@H]2O[C@H](COC(C)=O)[C@@H](OC(C)=O)[C@H](OC(C)=O)[C@H]2OC(C)=O)[C@@H](OC(C)=O)[C@@H]1OC(C)=O [Sucrose octaacetate]
- Maximum Peracetic Acid (PAA) (ppm), C277S (SEQ ID NO: 424) (C277S (SEQ ID NO: 424)): 215 ppm
- Maximum Peracetic Acid (PAA) (ppm), C277T (SEQ ID NO: 437) (C277T (SEQ ID NO: 437)): 493 ppm
- Maximum Peracetic Acid (PAA) (ppm), C277T/R296P (SEQ ID NO: 476) [1]: 501 ppm
- Maximum Peracetic Acid (PAA) (ppm), Wild Type (SEQ ID NO: 16) [2]: 304 ppm
- Whiteness Index Treatment 1 [3]: −135.2
- Whiteness Index Treatment 2 [3]: −135.9
- Whiteness Index Treatment 3 [3]: −128.8
- Whiteness Index Treatment 0 [3]: −172.8
- change in whiteness index (in words) [3]: significant change in whiteness index
- ΔWI [3]: 44.0

Structure (SMILES): CC(=O)OCC(C)OC(C)=O (stereo not drawn) [Propylene glycol diacetate]
- Maximum Peracetic Acid (PAA) (ppm), C277S (SEQ ID NO: 424) (C277S (SEQ ID NO: 424)): 1128 ppm
- Maximum Peracetic Acid (PAA) (ppm), C277T (SEQ ID NO: 437) (C277T (SEQ ID NO: 437)): 1245 ppm
- Maximum Peracetic Acid (PAA) (ppm), C277T/R296P (SEQ ID NO: 476) [1]: 1202 ppm
- Maximum Peracetic Acid (PAA) (ppm), Wild Type (SEQ ID NO: 16) [2]: 780 ppm
- Whiteness Index Treatment 1 [3]: −108.0
- Whiteness Index Treatment 2 [3]: −80.9
- Whiteness Index Treatment 3 [3]: −80.1
- Whiteness Index Treatment 0 [3]: −181.4
- change in whiteness index (in words) [3]: significant change in whiteness index
- ΔWI [3]: 101.3

Structure (SMILES): CC(=O)OC[C@H]1O[C@@H](OC(C)=O)[C@H](OC(C)=O)[C@@H](OC(C)=O)[C@@H]1OC(C)=O [β-D-glucose pentaacetate]
- Maximum Peracetic Acid (PAA) (ppm), C277S (SEQ ID NO: 424) (C277S (SEQ ID NO: 424)): 2178 ppm
- Maximum Peracetic Acid (PAA) (ppm), C277T (SEQ ID NO: 437) (C277T (SEQ ID NO: 437)): 2531 ppm
- Maximum Peracetic Acid (PAA) (ppm), C277T/R296P (SEQ ID NO: 476) [1]: 1716 ppm
- Maximum Peracetic Acid (PAA) (ppm), Wild Type (SEQ ID NO: 16) [2]: 1158 ppm

Structure (SMILES): CC(=O)OCCOCCOC(C)=O [Diethylene glycol diacetate]
- Maximum Peracetic Acid (PAA) (ppm), C277S (SEQ ID NO: 424) (C277S (SEQ ID NO: 424)): 469 ppm
- Maximum Peracetic Acid (PAA) (ppm), C277T (SEQ ID NO: 437) (C277T (SEQ ID NO: 437)): 653 ppm
- Maximum Peracetic Acid (PAA) (ppm), C277T/R296P (SEQ ID NO: 476) [1]: 530 ppm
- Maximum Peracetic Acid (PAA) (ppm), Wild Type (SEQ ID NO: 16) [2]: 424 ppm
